The text below walks through data of PubChem BioAssay (NCI).

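A five-concentration, 48-hour dose response in 96-well plates underlies each endpoint, interpolated linearly between surrounding concentrations. The concentration for full growth arrest is given as TGI.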 Where only a bound is given, the exact number is not on record here.

Among the test systems are HCC-2998 colon; HL-60(TB) leukemia; M14 melanoma; NCI-H23 lung; NCI-H460 lung; OVCAR-3 ovarian; SF-539 CNS; SK-MEL-2 melanoma; SK-MEL-28 melanoma; SN12C renal; SNB-75 CNS; RPMI-8226 leukemia.
Holding throughout (assay): NCI tumour cell line growth inhibition, 48 h

In the case of `CC1=C(C(=O)NNC(=O)Cc2ccccc2)CC(C(=O)NNC(=O)Cc2ccccc2)=C(C)N1`, the TGI with HCC-2998 colon, in the test on HL-60(TB) leukemia, in the test with M14 melanoma, in the test with NCI-H23 lung, with NCI-H460 lung and in the test with OVCAR-3 ovarian was more than 100 µM in each case. Moreover, the TGI in the test on SF-539 CNS, in the test with SK-MEL-2 melanoma, in the test with SK-MEL-28 melanoma, in the test on SN12C renal and in the test on SNB-75 CNS was more than 100 µM each time.

Consider `Clc1ccc(Nc2ncco2)cc1Cl`, for which the TGI in the test with HCC-2998 colon, in the test on M14 melanoma, in the test with NCI-H23 lung, in the test on NCI-H460 lung, in the test on OVCAR-3 ovarian and with SF-539 CNS was more than 10 µM throughout. The TGI in the test on SK-MEL-28 melanoma, in the test on SN12C renal and in the test with SNB-75 CNS was more than 10 µM each time.

As for `O=C(O)c1cc2ccccc2c(Cc2c(O)c(C(=O)O)cc3ccccc23)c1O`, the TGI with HCC-2998 colon, in the test with HL-60(TB) leukemia, in the test on M14 melanoma, in the test on NCI-H23 lung, in the test on NCI-H460 lung and with OVCAR-3 ovarian was more than 100 µM throughout. Besides, the TGI in the test on RPMI-8226 leukemia, in the test with SK-MEL-2 melanoma, in the test with SK-MEL-28 melanoma and in the test with SN12C renal was more than 100 µM in each case.

On to `CC(=N/NC(=S)N1CCCCCC1)/C(C)=N\NC(=S)N1CCCCCC1`, for which the TGI is 18.6 µM in the test with HCC-2998 colon; 57.9 µM in the test with M14 melanoma; 12.6 µM with NCI-H23 lung; 31.4 µM with NCI-H460 lung; 14.3 µM in the test on OVCAR-3 ovarian; more than 100 µM in the test on RPMI-8226 leukemia. Further, the TGI in the test on SF-539 CNS was more than 100 µM; in the test on SK-MEL-28 melanoma, 3.56 µM; in the test on SN12C renal, 3.99 µM; in the test with SNB-75 CNS, 10.9 µM.

Turning to `CC(=O)Nc1ccc(NC(=O)CC(=O)Nc2ccc(NC(C)=O)cc2)cc1`, the TGI in the test on HCC-2998 colon was 36.7 µM; in the test on HL-60(TB) leukemia it was more than 100 µM; with M14 melanoma it was more than 100 µM; in the test with NCI-H23 lung, more than 100 µM; with NCI-H460 lung, more than 100 µM; in the test on OVCAR-3 ovarian, more than 100 µM. The TGI in the test on RPMI-8226 leukemia, in the test on SF-539 CNS, with SK-MEL-28 melanoma and in the test on SN12C renal was more than 100 µM each time.

Regarding `C/C=C/CC(C(=O)OCC)(N(C)C(=O)OC(C)(C)C)S(=O)(=O)c1ccc(C)cc1` (centres undefined), the TGI in the test on HL-60(TB) leukemia, in the test with M14 melanoma, in the test with NCI-H23 lung, in the test on OVCAR-3 ovarian, in the test with RPMI-8226 leukemia and with SF-539 CNS was more than 100 µM each time. For the same molecule, the TGI with SK-MEL-2 melanoma, in the test on SK-MEL-28 melanoma and in the test with SN12C renal was more than 100 µM each time.

Consider `C[N+]1=C(c2cccnc2/C=N/O)OCC1(C)C`, for which the TGI with HCC-2998 colon, in the test on HL-60(TB) leukemia, in the test with M14 melanoma, in the test with NCI-H23 lung, in the test on NCI-H460 lung and with OVCAR-3 ovarian was more than 100 µM each time. Further, the TGI with SF-539 CNS, in the test on SK-MEL-2 melanoma, in the test with SK-MEL-28 melanoma, in the test on SN12C renal and in the test on SNB-75 CNS was more than 100 µM throughout.

With `C/C=C1\CC(C(=O)OCC)CCCCCCC1=O` (centres undefined), the TGI in the test with HL-60(TB) leukemia, in the test on M14 melanoma, in the test with NCI-H23 lung, in the test with SF-539 CNS, with SK-MEL-2 melanoma and in the test with SK-MEL-28 melanoma was more than 100 µM each time. Moreover, the TGI in the test on SN12C renal and with SNB-75 CNS was more than 100 µM in each case.

Consider `CC(=O)C(N1CCCCC1)C(O)(C(F)(F)F)C(F)(F)F` (centres undefined), for which the TGI in the test with HCC-2998 colon, in the test on HL-60(TB) leukemia, in the test with M14 melanoma, in the test on NCI-H23 lung, with NCI-H460 lung and with OVCAR-3 ovarian was more than 100 µM in each case. The TGI with RPMI-8226 leukemia, with SF-539 CNS, in the test with SK-MEL-28 melanoma and with SNB-75 CNS was more than 100 µM each time.

For `COc1cc(C2CC(C)(N3CCOCC3)Oc3cc4c(cc32)OCO4)cc(OC)c1OC` (centres undefined), the TGI in the test on HCC-2998 colon was 2.11 µM; in the test with M14 melanoma it was more than 100 µM; in the test with NCI-H23 lung, more than 100 µM; with NCI-H460 lung it was more than 100 µM; in the test on OVCAR-3 ovarian, more than 100 µM; with RPMI-8226 leukemia, 0.151 µM. In addition, the figures for the TGI in the test on SK-MEL-2 melanoma and in the test with SN12C renal were more than 35.9 µM and more than 100 µM, respectively.

For `CCOC(=O)/C=C/n1c2ccccc2c(=O)c2cc(OC)ccc21`, the TGI in the test on HCC-2998 colon, in the test with HL-60(TB) leukemia, with M14 melanoma, in the test with NCI-H23 lung, in the test with NCI-H460 lung and with OVCAR-3 ovarian was more than 100 µM each time. For the same molecule, the TGI in the test with SF-539 CNS, in the test with SK-MEL-2 melanoma, in the test on SK-MEL-28 melanoma, in the test with SN12C renal and in the test with SNB-75 CNS was more than 100 µM throughout.

Consider `O=Cc1c2c(cc3c1CC1(C3)Cc3cc4c(c(C=O)c3C1)CCCC4)CCCC2`, for which the TGI in the test with HCC-2998 colon is more than 31.6 µM; in the test with HL-60(TB) leukemia, more than 100 µM; with M14 melanoma, more than 31.6 µM; in the test with NCI-H23 lung, more than 31.6 µM; with NCI-H460 lung it was more than 100 µM; in the test on OVCAR-3 ovarian it was more than 31.6 µM. Also, the TGI with RPMI-8226 leukemia is 30.3 µM; in the test on SF-539 CNS, more than 31.6 µM; in the test on SK-MEL-28 melanoma, more than 100 µM; in the test on SN12C renal, more than 31.6 µM; in the test on SNB-75 CNS, more than 100 µM.

As to `[N-]=[N+]=CC(=O)C1(C(=O)C=[N+]=[N-])CC1`, the TGI with HCC-2998 colon, in the test on HL-60(TB) leukemia, with M14 melanoma, in the test on NCI-H23 lung, in the test on NCI-H460 lung and with OVCAR-3 ovarian was more than 100 µM in each case. For the same molecule, the TGI with SF-539 CNS, with SK-MEL-2 melanoma, with SK-MEL-28 melanoma, in the test with SN12C renal and with SNB-75 CNS was more than 100 µM throughout.
